Source: PubChem BioAssay (NCI)
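Growth conditions: 96-well plates. Treatment: test compound, 48 hours, 5 concentrations. Analysis: linear interpolation between bracketing concentrations; unreached endpoints set to highest concentration. Here, GI50 denotes the concentration required for 50% inhibition of growth. TGI is the concentration that stops growth completely.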

Legend:
Test in all cases: inhibition of tumour cell growth, NCI panel, 48 h
EKVX NSCLC = test system: EKVX NSCLC
NCI-H226 lung = test system: NCI-H226 lung
UACC-62 melanoma = test system: UACC-62 melanoma
KM12 colon = test system: KM12 colon
T-47D breast = test system: T-47D breast
MDA-MB-231 breast = test system: MDA-MB-231 breast
SF-268 CNS = test system: SF-268 CNS
NCI/ADR-RES ovarian = test system: NCI/ADR-RES ovarian
SR leukemia = test system: SR leukemia
HT29 colon = test system: HT29 colon
DU-145 prostate = test system: DU-145 prostate
SNB-75 CNS = test system: SNB-75 CNS
MDA-MB-435 = test system: MDA-MB-435
MALME-3M melanoma = test system: MALME-3M melanoma
HCC-2998 colon = test system: HCC-2998 colon
LOX IMVI melanoma = test system: LOX IMVI melanoma
SN12C renal = test system: SN12C renal
PC-3 prostate = test system: PC-3 prostate
OVCAR-5 ovarian = test system: OVCAR-5 ovarian
HCT-15 colon = test system: HCT-15 colon
SK-OV-3 ovarian = test system: SK-OV-3 ovarian
OVCAR-8 ovarian = test system: OVCAR-8 ovarian
RXF 393 renal = test system: RXF 393 renal
SK-MEL-5 melanoma = test system: SK-MEL-5 melanoma
UO-31 renal = test system: UO-31 renal
HL-60(TB) leukemia = test system: HL-60(TB) leukemia
SF-295 CNS = test system: SF-295 CNS
MCF7 breast = test system: MCF7 breast
COLO 205 colon = test system: COLO 205 colon
IGROV1 ovarian = test system: IGROV1 ovarian
OVCAR-4 ovarian = test system: OVCAR-4 ovarian
SF-539 CNS = test system: SF-539 CNS
TK-10 renal = test system: TK-10 renal
CAKI-1 renal = test system: CAKI-1 renal
NCI-H460 lung = test system: NCI-H460 lung
UACC-257 melanoma = test system: UACC-257 melanoma
SNB-19 CNS = test system: SNB-19 CNS
SK-MEL-28 melanoma = test system: SK-MEL-28 melanoma
HOP-92 NSCLC = test system: HOP-92 NSCLC
M14 melanoma = test system: M14 melanoma
MOLT-4 leukemia = test system: MOLT-4 leukemia
NCI-H23 lung = test system: NCI-H23 lung
A549 NSCLC = test system: A549 NSCLC
K-562 leukemia = test system: K-562 leukemia
HS 578T breast = test system: HS 578T breast
RPMI-8226 leukemia = test system: RPMI-8226 leukemia
786-0 renal = test system: 786-0 renal
SK-MEL-2 melanoma = test system: SK-MEL-2 melanoma
ACHN renal = test system: ACHN renal
BT-549 breast = test system: BT-549 breast
HCT-116 colon = test system: HCT-116 colon
HOP-62 NSCLC = test system: HOP-62 NSCLC
U251 CNS = test system: U251 CNS
A498 renal = test system: A498 renal
OVCAR-3 ovarian = test system: OVCAR-3 ovarian
CCRF-CEM leukemia = test system: CCRF-CEM leukemia
NCI-H522 lung = test system: NCI-H522 lung
SW-620 colon = test system: SW-620 colon

## Cn1c(Nc2ccc(C(F)(F)F)cc2)nc2cc(Oc3ccnc(-c4ncc(C(F)(F)F)[nH]4)c3)ccc21
EKVX NSCLC
  GI50: 2.33 µM
  TGI: 19.1 µM
NCI-H226 lung
  GI50: 0.492 µM
  TGI: 16.5 µM
UACC-62 melanoma
  GI50: 0.0519 µM
  TGI: 3.89 µM
KM12 colon
  GI50: 1.3 µM
  TGI: 12.5 µM
T-47D breast
  GI50: 2.3 µM
  TGI: 17.4 µM
MDA-MB-231 breast
  GI50: 0.803 µM
  TGI: 12.2 µM
SF-268 CNS
  GI50: 0.966 µM
  TGI: 14.5 µM
NCI/ADR-RES ovarian
  GI50: 1.64 µM
  TGI: 13.4 µM
SR leukemia
  GI50: 0.0457 µM
  TGI: 13.2 µM
HT29 colon
  GI50: 0.124 µM
  TGI: 3.56 µM
DU-145 prostate
  GI50: 2.05 µM
  TGI: 17.3 µM
SNB-75 CNS
  GI50: 0.297 µM
  TGI: 26.2 µM
MDA-MB-435
  GI50: 0.0774 µM
  TGI: 9.44 µM
MALME-3M melanoma
  GI50: 0.0284 µM
  TGI: 0.154 µM
HCC-2998 colon
  GI50: 1.25 µM
  TGI: 13.1 µM
LOX IMVI melanoma
  GI50: 0.0599 µM
  TGI: 1.78 µM
SN12C renal
  GI50: 0.0855 µM
  TGI: 16.6 µM
PC-3 prostate
  GI50: 1.53 µM
  TGI: 17.2 µM
OVCAR-5 ovarian
  GI50: 1.53 µM
  TGI: 17.4 µM
HCT-15 colon
  GI50: 0.0697 µM
  TGI: 12.8 µM
SK-OV-3 ovarian
  GI50: 0.0385 µM
  TGI: 19.1 µM
OVCAR-8 ovarian
  GI50: 0.775 µM
  TGI: 14.1 µM
RXF 393 renal
  GI50: 0.0544 µM
  TGI: 7.32 µM
SK-MEL-5 melanoma
  GI50: 0.34 µM
  TGI: 4.96 µM
UO-31 renal
  GI50: 0.239 µM
  TGI: 10.2 µM
HL-60(TB) leukemia
  GI50: 0.365 µM
  TGI: 7.06 µM
SF-295 CNS
  GI50: 0.402 µM
  TGI: 11.8 µM
MCF7 breast
  GI50: 3.38 µM
  TGI: 14.4 µM
COLO 205 colon
  GI50: 0.367 µM
  TGI: 10.6 µM
IGROV1 ovarian
  GI50: 0.0668 µM
  TGI: 15.4 µM
OVCAR-4 ovarian
  GI50: 1.21 µM
  TGI: 14.4 µM
SF-539 CNS
  GI50: 0.232 µM
  TGI: 13.7 µM
TK-10 renal
  GI50: 2.91 µM
  TGI: 16.2 µM
CAKI-1 renal
  GI50: 0.0609 µM
  TGI: 15.4 µM
NCI-H460 lung
  GI50: 0.197 µM
  TGI: 7.61 µM
UACC-257 melanoma
  GI50: 0.131 µM
  TGI: 0.977 µM
SNB-19 CNS
  GI50: 1.04 µM
  TGI: 20.1 µM
SK-MEL-28 melanoma
  GI50: 0.126 µM
  TGI: 4.79 µM
HOP-92 NSCLC
  GI50: 0.408 µM
  TGI: 7.26 µM
M14 melanoma
  GI50: 0.0338 µM
  TGI: 1.33 µM
MOLT-4 leukemia
  GI50: 0.319 µM
  TGI: 8.76 µM
NCI-H23 lung
  GI50: 0.31 µM
  TGI: 7.8 µM
A549 NSCLC
  GI50: 0.231 µM
  TGI: 11.7 µM
K-562 leukemia
  GI50: 1.76 µM
  TGI: 25 µM
HS 578T breast
  GI50: 0.0555 µM
  TGI: 9.41 µM
RPMI-8226 leukemia
  GI50: 1.49 µM
  TGI: 15.2 µM
786-0 renal
  GI50: 2.22 µM
  TGI: 13.9 µM
SK-MEL-2 melanoma
  GI50: 0.0387 µM
  TGI: 0.728 µM
ACHN renal
  GI50: 0.0354 µM
  TGI: 11.7 µM
BT-549 breast
  GI50: 0.155 µM
  TGI: 12.2 µM
HCT-116 colon
  GI50: 0.0787 µM
  TGI: 7.06 µM
HOP-62 NSCLC
  GI50: 2.85 µM
  TGI: 18.6 µM
U251 CNS
  GI50: 0.154 µM
  TGI: 12.9 µM
A498 renal
  GI50: 0.0297 µM
  TGI: 0.851 µM
OVCAR-3 ovarian
  GI50: 1.54 µM
  TGI: 7.54 µM
CCRF-CEM leukemia
  GI50: 0.251 µM
  TGI: 5.17 µM
NCI-H522 lung
  GI50: 0.307 µM
  TGI: 11 µM
SW-620 colon
  GI50: 0.578 µM
  TGI: 12.7 µM

## COC(=O)C1=CN(CC2=CC(=O)C(C)=CC2=O)C=C(C(=O)OC)C1c1cccc(OC)c1
EKVX NSCLC
  GI50: 12.2 µM
  TGI: 27.2 µM
NCI-H226 lung
  GI50: 20 µM
  TGI: 62.2 µM
UACC-62 melanoma
  GI50: 13.6 µM
  TGI: 29.4 µM
KM12 colon
  GI50: 8.34 µM
  TGI: 26.9 µM
T-47D breast
  GI50: 8.26 µM
  TGI: > 100 µM
MDA-MB-231 breast
  GI50: 13.4 µM
  TGI: 31.2 µM
SF-268 CNS
  GI50: 12.1 µM
  TGI: 30.8 µM
NCI/ADR-RES ovarian
  GI50: 12.4 µM
  TGI: 60.2 µM
SR leukemia
  GI50: 4.74 µM
  TGI: 35 µM
HT29 colon
  GI50: 37 µM
  TGI: > 100 µM
DU-145 prostate
  GI50: 16.4 µM
  TGI: 33.3 µM
SNB-75 CNS
  GI50: 31 µM
  TGI: > 100 µM
MDA-MB-435
  GI50: 5.8 µM
  TGI: 16.2 µM
MALME-3M melanoma
  GI50: 6.81 µM
  TGI: 16.1 µM
HCC-2998 colon
  GI50: 12.5 µM
  TGI: 32.6 µM
LOX IMVI melanoma
  GI50: 17.6 µM
  TGI: 42.7 µM
SN12C renal
  GI50: 22.9 µM
  TGI: > 60.5 µM
PC-3 prostate
  GI50: 8 µM
  TGI: 29.9 µM
OVCAR-5 ovarian
  GI50: 19 µM
  TGI: 42 µM
HCT-15 colon
  GI50: 16.6 µM
  TGI: 39 µM
SK-OV-3 ovarian
  GI50: 20.3 µM
  TGI: 43.1 µM
OVCAR-8 ovarian
  GI50: > 51.9 µM
  TGI: > 100 µM
RXF 393 renal
  GI50: 17.4 µM
  TGI: 39.8 µM
SK-MEL-5 melanoma
  GI50: 14.4 µM
  TGI: 42.2 µM
UO-31 renal
  GI50: 2.65 µM
  TGI: > 22.5 µM
HL-60(TB) leukemia
  GI50: 4.76 µM
  TGI: > 100 µM
SF-295 CNS
  GI50: 10.3 µM
  TGI: 26.4 µM
MCF7 breast
  GI50: 16 µM
  TGI: > 100 µM
COLO 205 colon
  GI50: 18.4 µM
  TGI: > 66.6 µM
IGROV1 ovarian
  GI50: 12.8 µM
  TGI: > 58.1 µM
OVCAR-4 ovarian
  GI50: 25.7 µM
  TGI: > 100 µM
SF-539 CNS
  GI50: 8.25 µM
  TGI: 23.3 µM
TK-10 renal
  GI50: 12.2 µM
  TGI: 25.9 µM
CAKI-1 renal
  GI50: 2.45 µM
  TGI: 5.61 µM
NCI-H460 lung
  GI50: 14.3 µM
  TGI: 49.7 µM
UACC-257 melanoma
  GI50: 16.3 µM
  TGI: 31 µM
SNB-19 CNS
  GI50: 26 µM
  TGI: > 79.2 µM
SK-MEL-28 melanoma
  GI50: 25 µM
  TGI: 79 µM
HOP-92 NSCLC
  GI50: 10.6 µM
  TGI: 33.8 µM
M14 melanoma
  GI50: 18.6 µM
  TGI: 35.6 µM
MOLT-4 leukemia
  GI50: 3.11 µM
  TGI: > 100 µM
NCI-H23 lung
  GI50: 18.4 µM
  TGI: 53.5 µM
A549 NSCLC
  GI50: 25.1 µM
  TGI: > 67.2 µM
K-562 leukemia
  GI50: 3.84 µM
  TGI: > 35.6 µM
HS 578T breast
  GI50: 8.66 µM
  TGI: 44.9 µM
RPMI-8226 leukemia
  GI50: 1.95 µM
  TGI: 5.06 µM
786-0 renal
  GI50: > 22.5 µM
  TGI: > 41 µM
SK-MEL-2 melanoma
  GI50: 24.3 µM
  TGI: > 100 µM
ACHN renal
  GI50: 2.78 µM
  TGI: 7.99 µM
BT-549 breast
  GI50: 8.61 µM
  TGI: 36.6 µM
HCT-116 colon
  GI50: 3.63 µM
  TGI: 11.1 µM
HOP-62 NSCLC
  GI50: 19.3 µM
  TGI: 38.9 µM
U251 CNS
  GI50: 8.47 µM
  TGI: 30.5 µM
A498 renal
  GI50: 18.6 µM
  TGI: 34.6 µM
OVCAR-3 ovarian
  GI50: 3.51 µM
  TGI: 12.3 µM
CCRF-CEM leukemia
  GI50: 2.38 µM
  TGI: > 21.9 µM
NCI-H522 lung
  GI50: 8.19 µM
  TGI: > 31.9 µM
SW-620 colon
  GI50: 2.2 µM
  TGI: 4.81 µM
